# Entries after “also recorded” stand apart in the source; their conditions may differ.
# Legend:
# [1] = system: IMPDH; assay: Insulin-stimulated 32P phosphorylation of IMPDH; format: cell-based
# Method: (§1) 3T3-L1 cells, CHO.IR cells (46) and fibroblast cells derived from vimentin null (Vim^−/−) mice were cultured as described (28, 47). Human preadipocytes were cultured and differentiated as described (47). Transfections were performed using Lipofectamine. Cells were serum starved for at least 2 h before treatment with insulin (1 μM, 15 min) or pre-treatment with wortmannin (100 nM, 25 min), LY294002 (50 μM, 10 min) or C2-ceramide (100 μM, 2 h) followed by insulin or oleate. To induce lipid body accumulation cells were cultured in regular growth medium supplemented with 200 μM oleate complexed to fatty acid free bovine serum albumin (BSA) in a 6:1 molar ratio. Mycophenolic acid (MPA) was dissolved in methanol to give a stock solution of 30 mM. This was further diluted in methanol, prior to direct addition to the culture media such that the final concentration of methanol was always 0.1%. Guanosine was dissolved in DMSO to give a stock solution of 100 mM. This was further diluted in DMSO, prior to direct addition to the culture media such that the final concentration of DMSO was always 0.33%. Media was refreshed, with addition of fresh MPA, guanosine, or vehicle, every 3 days as appropriate. […] Samples were subjected to SDS-PAGE and analysed by immunoblotting and autoradiography. […]
# [2] = system: Akt; assay: Akt phosphorylation (immunoblotting); format: cell-based; settings: C2-ceramide; data not shown
# Method: (§2) 3T3-L1 cells, CHO.IR cells (46) and fibroblast cells derived from vimentin null (Vim^−/−) mice were cultured as described (28, 47). Human preadipocytes were cultured and differentiated as described (47). Transfections were performed using Lipofectamine. Cells were serum starved for at least 2 h before treatment with insulin (1 μM, 15 min) or pre-treatment with wortmannin (100 nM, 25 min), LY294002 (50 μM, 10 min) or C2-ceramide (100 μM, 2 h) followed by insulin or oleate. To induce lipid body accumulation cells were cultured in regular growth medium supplemented with 200 μM oleate complexed to fatty acid free bovine serum albumin (BSA) in a 6:1 molar ratio. Mycophenolic acid (MPA) was dissolved in methanol to give a stock solution of 30 mM. This was further diluted in methanol, prior to direct addition to the culture media such that the final concentration of methanol was always 0.1%. Guanosine was dissolved in DMSO to give a stock solution of 100 mM. […]
# For western blotting, following appropriate treatment, cells were harvested in lysis buffer (50 mM HEPES (pH 7.4), 150 mM NaCl, 1% Triton-X-100, 1 mM Na3VO4, 30 mM NaF, 10 mM Na4P2O7, 10 mM EDTA, 1 μg/ml aprotinin, 1 μg/ml leupeptin, 2 mM PMSF) and clarified by centrifugation (2,000×g for 10 min). Protein concentration was determined using the BCA assay. […]
# [3] = system: CHO.IR cells; assay: Oleate-induced lipid accumulation, Oil red-O staining; format: cell-based, Chinese hamster; settings: LY294002 + 200 μM oleate, 5 h
# Method: as §1, with “(Vim^-/-)” for “(Vim^−/−)”, “Quantification of lipids was determined by measuring Oil red-O staining at […]. Protein concentration was determined in parallel and values” for “Samples”, “normalised” for “subjected”, “protein.” for “SDS-PAGE and analysed by immunoblotting and autoradiography.”
# [4] = system: 3T3-L1 cells; assay: Western blotting of adipogenic transcription factors and IMPDH in differentiating 3T3-L1 cells; format: cell-based, murine
# Method: (§3) 3T3-L1 cells, CHO.IR cells (46) and fibroblast cells derived from vimentin null (Vim^−/−) mice were cultured as described (28, 47). Human preadipocytes were cultured and differentiated as described (47). Transfections were performed using Lipofectamine. Cells were serum starved for at least 2 h before treatment with insulin (1 μM, 15 min) or pre-treatment with wortmannin (100 nM, 25 min), LY294002 (50 μM, 10 min) or C2-ceramide (100 μM, 2 h) followed by insulin or oleate. To induce lipid body accumulation cells were cultured in regular growth medium supplemented with 200 μM oleate complexed to fatty acid free bovine serum albumin (BSA) in a 6:1 molar ratio. Mycophenolic acid (MPA) was dissolved in methanol to give a stock solution of 30 mM. This was further diluted in methanol, prior to direct addition to the culture media such that the final concentration of methanol was always 0.1%. Guanosine was dissolved in DMSO to give a stock solution of 100 mM. This was further diluted in DMSO, prior to direct addition to the culture media such that the final concentration of DMSO was always 0.33%. Media was refreshed, with addition of fresh MPA, guanosine, or vehicle, every 3 days as appropriate.
# For western blotting, following appropriate treatment, cells were harvested in lysis buffer (50 mM HEPES (pH 7.4), 150 mM NaCl, 1% Triton-X-100, 1 mM Na3VO4, 30 mM NaF, 10 mM Na4P2O7, 10 mM EDTA, 1 μg/ml aprotinin, 1 μg/ml leupeptin, 2 mM PMSF) and clarified by centrifugation (2,000×g for 10 min). Protein concentration was determined using the BCA assay. Equal protein was subjected to SDS-PAGE and immunoblotting and visualized by autoradiography (using enhanced chemiluminescence) or fluorescent analysis using the L1-Cor Odyssey system.
# [5] = system: 3T3-L1 preadipocytes; assay: Adipogenesis of 3T3-L1 preadipocytes (lipid accumulation, G3PDH activity, protein); format: cell-based, murine
# Method: as §3, with “appropriate. Cells were washed in ice cold PBS (pH 7.4) and harvested in 1 ml of ice-cold 50 mM Tris (pH 7.5) containing 1 mM EDTA and 500 μM DTT. Cells were disrupted by sonication and centrifuged at 12000 g for 15 min at 4° C. Before assay, 5 μl of 100 mM DTT was added. The supernatant was then assayed for G3PDH activity in a final concentration of 100 mM triethanolamine-HCl (pH 7.5), 2.5 mM EDTA, 0.24 mM NADH, 50 μM DTT and 0.4 mM dihydroxyacetone phosphate (DAP). The reaction was initiated by addition of DAP and the rate of change in A340 was measured using a FLUOstar Optimem spectrophotometer (BMG labtech, Victoria Australia). Each of three culture wells was assayed in duplicate with a reagent blank containing distilled water instead of substrate (DAP). An aliquot of the supernatant was assayed to determine protein concentration.” for “appropriate.”
# [6] = system: primary human preadipocytes; assay: Adipogenesis of primary human preadipocytes (lipid accumulation, G3PDH activity); format: cell-based
# Method: as §3, with “appropriate. Cells were washed in ice cold PBS (pH 7.4) and harvested in 1 ml of ice-cold 50 mM Tris (pH 7.5) containing 1 mM EDTA and 500 μM DTT. Cells were disrupted by sonication and centrifuged at 12000 g for 15 min at 4° C. Before assay, 5 μl of 100 mM DTT was added. The supernatant was then assayed for G3PDH activity in a final concentration of 100 mM triethanolamine-HCl (pH 7.5), 2.5 mM EDTA, 0.24 mM NADH, 50 μM DTT and 0.4 mM dihydroxyacetone phosphate (DAP). The reaction was initiated by addition of DAP and the rate of change in A340 was measured using a FLUOstar Optimem spectrophotometer (BMG labtech, Victoria Australia). Each of three culture wells was assayed in duplicate with a reagent blank containing distilled water instead of substrate (DAP). An aliquot of the supernatant was assayed to determine protein concentration.” for “appropriate.”
# [7] = system: 3T3-L1 preadipocytes; assay: Clonal expansion / cell number of differentiating 3T3-L1 cells (Syto60); format: cell-based, murine
# Method: as §2
# Essentially Syto60 staining was used to determine cell number following the manufacturers protocol. […] Finally, wells were aspirated and Syto60 staining was detected and quantitated using the LI-COR Odyssey Infrared Imaging System. DAPI was detected by fluorescence microscopy and was used to validate the Syto60 data in preliminary experiments.
compound,measurement,setting,value
CCCCCCCCCCCCC/C=C/[C@@H](O)[C@H](CO)NC(C)=O [C2-ceramide],insulin-stimulated IMPDH phosphorylation,"[1]; C2-ceramide 100 μM, 2 h",without effect
same,reduction of insulin-stimulated Akt phosphorylation,[2],70%
COc1ccc2c(c1)c(C1=C(c3c[nH]c4ccccc34)C(=O)NC1=O)cn2CCCN(C)C [Gö6983],role of the inhibited kinase (atypical PKCs; mTOR and p70S6 kinase) in insulin-stimulated IMPDH phosphorylation,"[1]; Gö6983 1 μM, rapamycin 22 nM, data not shown",eliminated
O=c1cc(N2CCOCC2)oc2c(-c3ccccc3)cccc12 [LY294002],reduction of oleate-induced lipid accumulation (Oil red-O),[3],approximately 50%
"COc1c(C)c2c(c(O)c1C/C=C(\C)CCC(=O)O)C(=O)OC2 [MPA, mycophenolic acid]",IMPDH expression,[4]; 1 μM MPA,promotes increased IMPDH expression; also recorded: promoted an increase in IMPDH expression
same,"expression of adipogenic transcription factors CEBPα, CEBPβ, PPARγ","[4]; 1 μM MPA, harvested at day 3","blocks expression of CEBPα, but not CEBPβ or PPARγ; also recorded: induction of expression of the adipogenic transcription factors CEBPβ and PPARγ, but not CEBPα, was apparent"
same,lipid accumulation (determined morphologically),[5]; 1 μM MPA,blocks lipid accumulation; also recorded: reduced lipid accumulation; also recorded: inhibited lipid accumulation
same,G3PDH activity,"[5]; 1 μM MPA, day 8",decreased G3PDH activity
same,differentiation,[5]; MPA for 6 days (0-6),block differentiation completely
same,lipid accumulation and G3PDH activity,[5]; MPA for the first 3 days (0-3) or the second 3 days (3-6) of differentiation,reduced lipid accumulation and G3PDH activity
same,IC50,"[5]; Mus musculus, 3T3-L1, increasing MPA for the first 6 days of differentiation, harvested day 8, read-out: IC50 for inhibition of differentiation (G3PDH activity and protein levels)",100 to 200 nM
same,induction of G3PDH activity,[6]; 1 μM MPA,reduced
same,lipid accumulation,[6]; 1 μM MPA,reduced lipid accumulation and expression of G3PDH activity
same,proliferation/clonal expansion,"[7]; 1 μM MPA, first 3 days of differentiation",blocks proliferation/clonal expansion; also recorded: blocked clonal expansion
Nc1nc2c(ncn2[C@@H]2O[C@H](CO)[C@@H](O)[C@H]2O)c(=O)[nH]1 [guanosine],MPA-induced increase in IMPDH expression,[4]; co-treatment with guanosine,Reversal of MPA induced increase in IMPDH expression; also recorded: prevented by co-treatment with guanosine
same,lipid accumulation and G3PDH activity in MPA-treated cells,[5]; 60 μM guanosine + 1 μM MPA,reversed the effects of MPA treatment; also recorded: restored lipid accumulation
same,effects of MPA treatment on lipid accumulation and G3PDH activity,[5]; 300 μM guanosine + 1 μM MPA,still able to reverse the effects of MPA treatment to some extent
same,lipid accumulation and adipogenesis,[5]; 300 μM guanosine alone,reduced adipogenesis; also recorded: inhibited lipid accumulation and adipogenesis
same,induction of G3PDH activity / differentiation,[6]; 60 μM guanosine,reduced induction of G3PDH activity; also recorded: inhibited differentiation
same,MPA inhibition of clonal expansion/proliferation,[7]; 60 μM guanosine co-treatment with MPA,Reversal of effects of MPA on clonal expansion; also recorded: reversed the inhibition of proliferation by MPA

# From patent publication US7915255B2, “Metabolism-modulating agents and uses therefor” (Verva Pharmaceuticals Pty Ltd, priority 2004, dated 2011)
